Experimental findings from ChEMBL document CHEMBL4325908, “Ligand-based design, synthesis and biological evaluation of xanthine derivatives as LSD1/KDM1A inhibitors” (Eur J Med Chem, 2019) are described below.

The target in data set [1] is Lysine-specific histone demethylase 1A (Homo sapiens, UniProt O60341). The data set is described as follows: Inhibition of full length recombinant LSD1 (unknown origin) expressed in Escherichia coli BL21(DE3) using H3K4me2 as substrate after 30 mins in presence of FAD by amplex red reagent based fluorescence assay.
Data set [2] deals with T1, MAO-A (Homo sapiens, UniProt P21397).
T1 sequence (P21397 whole entry): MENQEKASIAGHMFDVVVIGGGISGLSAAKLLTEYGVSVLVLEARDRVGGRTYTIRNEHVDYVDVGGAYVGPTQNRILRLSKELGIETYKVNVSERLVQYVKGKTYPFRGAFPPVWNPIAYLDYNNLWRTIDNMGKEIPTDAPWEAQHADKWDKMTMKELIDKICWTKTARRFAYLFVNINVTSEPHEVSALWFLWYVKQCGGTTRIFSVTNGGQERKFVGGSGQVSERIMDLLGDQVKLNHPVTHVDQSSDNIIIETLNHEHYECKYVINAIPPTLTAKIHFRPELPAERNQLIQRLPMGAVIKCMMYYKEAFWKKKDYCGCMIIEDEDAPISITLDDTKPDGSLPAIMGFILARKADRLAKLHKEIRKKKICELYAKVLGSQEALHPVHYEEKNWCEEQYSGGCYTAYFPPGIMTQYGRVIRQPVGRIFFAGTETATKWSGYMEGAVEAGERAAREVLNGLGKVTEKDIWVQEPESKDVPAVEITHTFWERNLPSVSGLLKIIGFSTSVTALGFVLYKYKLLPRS
The data set is described as follows: Inhibition of full length recombinant FLAG-tagged human MAO-A expressed in baculovirus infected sf9 cells at 1 uM preincubated for 15 mins followed by luciferin derived substrate addition measured after 60 mins by luciferase reporter gene assay relative to control. To be noted: probe luciferin derived substrate.

For data set [3], the target named is T2, MAO-B (Homo sapiens, UniProt P27338).
T2 sequence (P27338 whole entry): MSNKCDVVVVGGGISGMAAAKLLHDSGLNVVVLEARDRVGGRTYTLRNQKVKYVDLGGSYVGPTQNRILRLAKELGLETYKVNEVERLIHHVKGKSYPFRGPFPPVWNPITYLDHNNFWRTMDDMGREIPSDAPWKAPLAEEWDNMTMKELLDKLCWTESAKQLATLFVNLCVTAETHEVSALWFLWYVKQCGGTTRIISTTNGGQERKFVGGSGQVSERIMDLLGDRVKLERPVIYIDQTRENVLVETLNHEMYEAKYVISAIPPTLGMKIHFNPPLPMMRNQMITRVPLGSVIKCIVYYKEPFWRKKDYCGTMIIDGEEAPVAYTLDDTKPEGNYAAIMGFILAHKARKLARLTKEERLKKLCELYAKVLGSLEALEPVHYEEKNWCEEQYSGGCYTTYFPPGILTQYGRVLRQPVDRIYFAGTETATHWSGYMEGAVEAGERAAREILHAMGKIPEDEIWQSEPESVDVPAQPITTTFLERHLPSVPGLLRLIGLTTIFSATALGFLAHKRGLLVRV
The data set is described as follows: Inhibition of full length recombinant FLAG-tagged human MAO-B expressed in baculovirus infected sf9 cells at 1 uM preincubated for 15 mins followed by luciferin derived substrate addition measured after 60 mins by luciferase reporter gene assay relative to control. To be noted: probe luciferin derived substrate.

Data set [4] deals with T1, MAO-A. The data set is described as follows: Inhibition of full length recombinant FLAG-tagged human MAO-A expressed in baculovirus infected sf9 cells at 0.1 uM preincubated for 15 mins followed by luciferin derived substrate addition measured after 60 mins by luciferase reporter gene assay relative to control. Conditions: probe luciferin derived substrate.
The target in data set [5] is T2, MAO-B. The data set is described as follows: Inhibition of full length recombinant FLAG-tagged human MAO-B expressed in baculovirus infected sf9 cells at 0.1 uM preincubated for 15 mins followed by luciferin derived substrate addition measured after 60 mins by luciferase reporter gene assay relative to control. Conditions: probe luciferin derived substrate.
For data set [6], the system named is MGC-803. The data set is described as follows: Antiproliferative activity against human MGC803 cells after 72 hrs by MTT assay. To be noted: MGC-803, 72 h.
For data set [7], the system named is MGC-803. The data set is described as follows: Antiproliferative activity against LSD1 knock down human MGC803 cells after 72 hrs by MTT assay. Format: functional, cell-based. Conditions: MGC-803, 72 h.
The test system of data set [8] is MGC-803. Nature of the data set: Ratio of IC50 for LSD1 knock down human MGC803 cells to IC50 for human MGC803 cells. Format: functional.
Data set [9] has as its target Bromodomain-containing protein 4 (Homo sapiens) (UniProt O60885). Nature of the data set: Inhibition of BRD4 (unknown origin) at 25 uM relative to control.
The target in data set [10] is Indoleamine 2,3-dioxygenase 1 (Homo sapiens, UniProt P14902). Nature of the data set: Inhibition of IDO1 (unknown origin).
Indoleamine 2,3-dioxygenase 1, sequence (P14902 whole entry): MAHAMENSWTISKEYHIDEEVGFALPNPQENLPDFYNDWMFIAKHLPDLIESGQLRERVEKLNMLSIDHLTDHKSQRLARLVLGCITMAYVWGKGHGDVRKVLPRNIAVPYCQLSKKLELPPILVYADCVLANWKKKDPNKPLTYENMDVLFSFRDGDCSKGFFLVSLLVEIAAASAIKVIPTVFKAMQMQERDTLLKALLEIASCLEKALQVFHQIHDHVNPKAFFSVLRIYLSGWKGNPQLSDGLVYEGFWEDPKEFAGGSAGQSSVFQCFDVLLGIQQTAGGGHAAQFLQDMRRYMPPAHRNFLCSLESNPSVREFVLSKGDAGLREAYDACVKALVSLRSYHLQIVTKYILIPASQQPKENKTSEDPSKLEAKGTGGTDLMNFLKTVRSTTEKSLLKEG

`CCCn1c(SCc2cccc(C)c2)nc2c1c(=O)[nH]c(=O)n2C`: the IC50 in data set [1] was 8.89 µM; in the data set with MGC-803 [6] it was 2.46 µM; in the data set with MGC-803 [7], 4.97 µM; in [10], 96.9 µM. The inhibition at 1 h, 1 µM was 20% at MAO-A [2] and 61% at MAO-B [3]. Besides, the inhibition at 1 h, 0.1 µM at MAO-A [4] was 9%; at MAO-B [5], 16%. Also, the “Ratio IC50” value in the data set with MGC-803 [8] is 2 - 3. The compound further returned an inhibition in data set [9] of 52%.

Consider `CCCn1c(SCc2ccc(Cl)cc2)nc2c1c(=O)[nH]c(=O)n2C`, for which, in data set [1], the IC50 was found to be 25.7 µM.

For the compound `CCCn1c(SCc2ccc(F)cc2)nc2c1c(=O)[nH]c(=O)n2C`, the IC50 turned out to be 14.2 µM in [1], 0.687 µM in the data set with MGC-803 [6], 2.02 µM with MGC-803 [7] and 96.9 µM in data set [10]. Also, the “Ratio IC50” value in the data set with MGC-803 [8] is 2 - 3. Besides, the inhibition in [9] is 49%.

For `CCCn1c(S)nc2c1c(=O)[nH]c(=O)n2C`, the IC50 in data set [1] was determined as 6.45 µM.
